The text below walks through data of patent US6069156A, “Indole derivatives as cGMP-PDE inhibitors” (Fujisawa Pharmaceutical Co., Ltd., priority 1995, dated 2000).

The test system of series [1] is aorta (spirally cut strips). Kind of series: Smooth Muscle Relaxant: noradrenaline-contracted rat aorta strips. More on the design: species or system male Wistar rats. To be noted: contraction by noradrenaline 1 μM, 37° C. The procedure: The aorta were carefully removed from male Wistar rats, cleaned of fat and extraneous tissue. Spirally cut strips of the aorta were placed in a 25 ml organ bath containing Tyrode solution of the following composition (mM); NaCl, 137; KCl, 2.7; CaCl2, 1.8; NaH2 PO4, 0.4; NaHCO3, 12.0; MgSO4, 1.1; glucose, 5.6. The bath was maintained at 37° C. and bubbled with 95% O2 and 5% CO2. The spirally cut strip was stretched to a resting force of 1.0 g, and the isometric contraction was recorded via a force development transducer on an ink writing recorder. Tissues were equilibrated for 60 minutes before contraction was induced by noradrenaline (NA, 1 μM). The test compounds were cumulatively added to organ bath in increasing concentrations ranging from 10^-8 to 10^-5 M, after maximum stable constriction to NA had been achieved.

The subject of series [2] is Vascular smooth muscle cells (vSMCs). The series can be described thus: vSMC Proliferation ([3H]-thymidine, PDGF-stimulated). To be noted: Rattus norvegicus, PDGF 10 ng/ml stimulation. It counts as cell-based, male Wistar rats. As for the experimental part:
Vascular smooth muscle cells (vSMCs) were prepared from explants of the thoracic aorta of 10 week old male Wistar rats by a modification of the method of Ross (J. Cell Biol., 50: 172, 1971). They were cultured in DMEM containing 10% fetal calf serum, 1% penicillin G and 1% streptomycin at 37° C. in a 95% air, 5% CO2 humidified atmosphere. vSMCs were seeded in 24 well plates and cultured in the presence of 10% fetal calf serum for 3 days. Cell growth then was arrested by transfer to serum free DMEA. After 24 hours, each test compound or vehicle was added to medium for 1 hour, and then cells were stimulated by PDGF (10 ng/ml). After 24 hours of additional incubation, [^3 H]-thymidine (1 μCi/ml) was added during the final 4 hours of incubation time, and trichloracetic acid insoluble radioactivity was assayed by liquid scintillation counting.

Another series addresses T1, cGMP-PDE (Homo sapiens, UniProt O76074).
T1 construct: cGMP-PDE was separated from other isozymes in human platelets; from tissue; host or cells: human platelets
Kind of series: cGMP-phosphodiesterase (PDE) Assay (human platelets). The format is biochemical. The procedure: cGMP-phosphodiesterase (PDE) Assay
cGMP-PDE was separated from other isozymes in human platelets by a modification of the method of Thompson et. al. (Cyclic Nucleotide Phosphodiesterase (PDE), in Methods of Enzymatic analysis, Vol 4, p127-234, 1984). In enzyme inhibition assays, the test compounds were dissolved in 10% DMSO and then diluted with assay buffer (50 mM Tris-HCl, pH 8.0, 0.1 mM dithiothreitol, 2 mM EGTA and 10 u/ml snake venom), at final concentrations ranging from 10^-10 to 10^-6 M. Assays were performed at 0.1 μM substrate ([^3 H]-cGMP) concentration, at 30° C. for 10 minutes using enzyme dilutions which gave 10-20% hydrolysis of substrate. Each assay was initiated by addition of substrate and terminated by addition of anion exchange resin (Dowex 1-X8, 25 μg/mg) followed by centrifugation for 10 minutes (3000 rpm, at 4° C.). Radioactivity of supernatant (^3 H-GMP) was assayed by liquid scintillation counting.

Series [3] deals with Genital Grooming and Penile Erection. The series can be described thus: Effect on Genital Grooming and Penile Erection in Male Mice. It counts as in vivo, male ICR mice. To be noted: oral; observed for one hour; n=10. As for the experimental part:
(d) Effect of Tested Compound on Genital Grooming and Penile Erection in Male Mice
Eight weeks old male ICR mice were housed under standard conditions of temperature, lighting and water supply before the experiment.
The test compound was dissolved in PEG400. After oral administration of the test compound, each mouse was transferred to an individual cage.

A short description of series [4]: Toxicity by repetitive oral administration. To be noted: 32 mg/kg once a day orally, 14 consecutive days. The format is in vivo, SD rat.

Turning to `CCCc1c(C(=O)COC)c2ccc(C(N)=O)cc2n1Cc1cc2c(cc1Cl)OCO2` [Example 27-(8), 1-(6-Chloro-3,4-methylenedioxybenzyl)-3-methoxyacetyl-2-propylindole-6-carboxamide], the IC50 (in series [1]; in series [2]; at cGMP-PDE) was less than 100 nM in each case. In addition, the “increase of the frequencies of genital grooming (average)” value in series [3] is 266%. Besides, in series [3], the “lengthening of the duration of penile erection (average)” value turned out to be 171%. Also, the “death on repetitive oral administration” value in series [4] was “the dead at dose of 32 mg/kg once a day for 14 consecutive days could not be observed”.
